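Protocol summary: plate cells (96-well), add compound at 5 concentrations, incubate 48 h, interpolate endpoints linearly. The concentration for 50% growth inhibition is given as GI50.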 Active and inactive are the calls of the source. No stated cut-off is given here; in the data, active = GI50 up to about 1.1 µM and inactive = higher.
What was measured:
Test in all cases: inhibition of tumour cell growth, NCI panel, 48 h
[1] = test system: NCI/ADR-RES
[2] = test system: HL-60
[3] = test system: HT-29
[4] = test system: ACHN
[5] = test system: MDA-N
[6] = test system: OVCAR-5
[7] = test system: A498
[8] = test system: RPMI-8226
[9] = test system: MOLT-4
[10] = test system: A549
[11] = test system: HOP-92
[12] = test system: OVCAR-4
[13] = test system: CAKI-1
[14] = test system: M14
[15] = test system: SR
[16] = test system: KM12
[17] = test system: HOP-62
[18] = test system: IGROV-1
[19] = test system: SF-295
[20] = test system: BT-549
[21] = test system: SN12C
[22] = test system: K562
[23] = test system: HCT-15
[24] = test system: LOX IMVI
[25] = test system: Malme-3M
[26] = test system: SF-268
[27] = test system: CCRF-CEM
[28] = test system: NCI-H460
[29] = test system: UACC-257
[30] = test system: EKVX
[31] = test system: SK-MEL-2
[32] = test system: 786-0
[33] = test system: SF-539
[34] = test system: TK-10
[35] = test system: COLO 205
[36] = test system: Hs-578T
[37] = test system: PC-3
[38] = test system: SK-MEL-5
[39] = test system: HCT-116
[40] = test system: SK-OV-3
[41] = test system: SK-MEL-28
[42] = test system: SW-620
[43] = test system: SNB-19
[44] = test system: MDA-MB-231
[45] = test system: OVCAR-8
[46] = test system: SNB-75
[47] = test system: MDA-MB-435
[48] = test system: DU-145
[49] = test system: U-251
[50] = test system: RXF 393
[51] = test system: UACC-62
[52] = test system: HCC 2998
[53] = test system: OVCAR-3
[54] = test system: UO-31
[55] = test system: NCI-H522
[56] = test system: NCI-H23
[57] = test system: MCF7
[58] = test system: NCI-H226

Measured: GI50

Cc1cn2c(C)csc2c1P(=O)(OC(C)C)OC(C)C
> 100 µM: [23]
inactive: [1] > 100 µM | [2] > 100 µM | [3] > 100 µM | [4] > 100 µM | [5] > 100 µM | [6] > 100 µM | [7] > 100 µM | [8] > 100 µM | [9] > 100 µM | [10] > 100 µM | [11] > 100 µM | [12] > 100 µM | [13] > 100 µM | [14] > 100 µM | [15] > 100 µM | [16] > 100 µM | [17] > 100 µM | [18] > 100 µM | [19] > 100 µM | [20] > 100 µM | [21] > 100 µM | [22] > 100 µM | [24] > 100 µM | [25] > 100 µM | [26] > 100 µM | [27] > 100 µM | [28] > 100 µM | [29] > 100 µM | [30] > 100 µM | [31] > 100 µM | [32] > 100 µM | [33] > 100 µM | [34] > 100 µM | [35] > 100 µM | [36] > 100 µM | [37] > 100 µM | [38] > 100 µM | [39] > 100 µM | [40] > 100 µM | [41] > 100 µM | [42] > 100 µM | [43] > 100 µM | [44] 31.3 µM | [45] > 100 µM | [46] > 100 µM | [47] > 100 µM | [48] > 100 µM | [49] > 100 µM | [50] > 100 µM | [51] > 100 µM | [52] > 100 µM | [53] > 100 µM | [54] > 100 µM | [55] > 100 µM | [56] > 100 µM | [57] > 100 µM

COc1cc(Cn2c3c(c4cc(O)ccc42)Cc2ccccc2C3=O)cc(OC)c1
33.9 µM: [23]
inactive: [1] 21.3 µM | [2] > 100 µM | [3] 37.1 µM | [5] 12 µM | [6] 19.1 µM | [7] > 100 µM | [8] 5.62 µM | [9] 28.9 µM | [10] 74 µM | [12] 19.9 µM | [13] 32.7 µM | [14] 68.1 µM | [15] 6.46 µM | [16] 39.2 µM | [17] 60.7 µM | [18] 44.8 µM | [19] 25.8 µM | [20] > 100 µM | [21] 24.7 µM | [22] 44.7 µM | [24] 76.4 µM | [25] 42.1 µM | [26] > 100 µM | [27] 22.6 µM | [28] 62.1 µM | [29] > 100 µM | [31] > 100 µM | [32] 58.3 µM | [33] 37.3 µM | [34] > 100 µM | [35] 28.9 µM | [36] > 100 µM | [37] 56.5 µM | [58] > 100 µM | [38] 35.7 µM | [39] 34.4 µM | [40] > 100 µM | [41] 31.8 µM | [42] 54.5 µM | [43] > 100 µM | [44] 31 µM | [45] 59.6 µM | [46] 15.5 µM | [47] 11.9 µM | [48] 58.1 µM | [49] 57.3 µM | [50] > 100 µM | [51] 38.2 µM | [53] > 100 µM | [54] > 100 µM | [56] > 100 µM | [57] 20.7 µM

O=C(O)CCNC(=O)c1cc(N(CCBr)CCBr)c([N+](=O)[O-])cc1[N+](=O)[O-]
inactive: [1] > 100 µM | [2] > 100 µM | [3] > 100 µM | [4] > 100 µM | [5] > 100 µM | [6] > 100 µM | [7] > 100 µM | [8] > 100 µM | [9] > 100 µM | [10] > 100 µM | [11] > 100 µM | [12] > 100 µM | [13] > 100 µM | [14] > 100 µM | [15] > 100 µM | [16] > 100 µM | [17] > 100 µM | [18] > 100 µM | [19] > 100 µM | [20] > 100 µM | [21] > 100 µM | [22] > 100 µM | [24] > 100 µM | [25] > 100 µM | [26] > 100 µM | [27] > 100 µM | [28] > 100 µM | [29] > 100 µM | [30] > 100 µM | [31] > 100 µM | [32] > 100 µM | [34] > 100 µM | [35] > 100 µM | [36] > 100 µM | [37] > 100 µM | [58] > 100 µM | [38] > 100 µM | [39] > 100 µM | [40] > 100 µM | [41] > 100 µM | [42] > 100 µM | [43] > 100 µM | [44] > 100 µM | [45] > 100 µM | [46] > 100 µM | [47] > 100 µM | [49] > 100 µM | [52] > 100 µM | [53] > 100 µM | [54] > 100 µM | [55] > 100 µM | [56] > 100 µM | [57] > 100 µM
> 100 µM: [23]
